Reference: patent publication US20090270394A1, “CYCLYLAMINE DERIVATIVES AS CALCIUM CHANNEL BLOCKERS” (priority 2008, published 2009)

Columns and labels:
T-type calcium channels = details: cited from earlier work
Human Cav2.2 channels = target: T1, Human Cav2.2 channels (Homo sapiens, UniProt Q00975); assay: Fluorescent assay for Cav2.2 channels using potassium depolarization to initiate channel opening; format: cell-based; details: for inhibition at 10 µM: 10 μM compound, read-out: Cav 2.2 Activity % Inh at 10 μM; for inhibition at 30 µM: 30 μM compound, read-out: Cav 2.2 Activity % Inh at 30 μM; for IC50: 30 mM K (block of open and inactivated channels), read-out: Cav 2.2 Activity IC50 at 30 mM K
T1 construct: expressed in transfected cells
Method in brief: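 HEK293 cells stably expressing human Cav2.2 with alpha2-delta and beta subunits plus Kir2.3, dye-loaded, then held 30 min at 25° C. in 4, 12, 25 or 30 mM K+ pre-polarization buffer with compound.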

T1 sequence (Q00975 whole entry): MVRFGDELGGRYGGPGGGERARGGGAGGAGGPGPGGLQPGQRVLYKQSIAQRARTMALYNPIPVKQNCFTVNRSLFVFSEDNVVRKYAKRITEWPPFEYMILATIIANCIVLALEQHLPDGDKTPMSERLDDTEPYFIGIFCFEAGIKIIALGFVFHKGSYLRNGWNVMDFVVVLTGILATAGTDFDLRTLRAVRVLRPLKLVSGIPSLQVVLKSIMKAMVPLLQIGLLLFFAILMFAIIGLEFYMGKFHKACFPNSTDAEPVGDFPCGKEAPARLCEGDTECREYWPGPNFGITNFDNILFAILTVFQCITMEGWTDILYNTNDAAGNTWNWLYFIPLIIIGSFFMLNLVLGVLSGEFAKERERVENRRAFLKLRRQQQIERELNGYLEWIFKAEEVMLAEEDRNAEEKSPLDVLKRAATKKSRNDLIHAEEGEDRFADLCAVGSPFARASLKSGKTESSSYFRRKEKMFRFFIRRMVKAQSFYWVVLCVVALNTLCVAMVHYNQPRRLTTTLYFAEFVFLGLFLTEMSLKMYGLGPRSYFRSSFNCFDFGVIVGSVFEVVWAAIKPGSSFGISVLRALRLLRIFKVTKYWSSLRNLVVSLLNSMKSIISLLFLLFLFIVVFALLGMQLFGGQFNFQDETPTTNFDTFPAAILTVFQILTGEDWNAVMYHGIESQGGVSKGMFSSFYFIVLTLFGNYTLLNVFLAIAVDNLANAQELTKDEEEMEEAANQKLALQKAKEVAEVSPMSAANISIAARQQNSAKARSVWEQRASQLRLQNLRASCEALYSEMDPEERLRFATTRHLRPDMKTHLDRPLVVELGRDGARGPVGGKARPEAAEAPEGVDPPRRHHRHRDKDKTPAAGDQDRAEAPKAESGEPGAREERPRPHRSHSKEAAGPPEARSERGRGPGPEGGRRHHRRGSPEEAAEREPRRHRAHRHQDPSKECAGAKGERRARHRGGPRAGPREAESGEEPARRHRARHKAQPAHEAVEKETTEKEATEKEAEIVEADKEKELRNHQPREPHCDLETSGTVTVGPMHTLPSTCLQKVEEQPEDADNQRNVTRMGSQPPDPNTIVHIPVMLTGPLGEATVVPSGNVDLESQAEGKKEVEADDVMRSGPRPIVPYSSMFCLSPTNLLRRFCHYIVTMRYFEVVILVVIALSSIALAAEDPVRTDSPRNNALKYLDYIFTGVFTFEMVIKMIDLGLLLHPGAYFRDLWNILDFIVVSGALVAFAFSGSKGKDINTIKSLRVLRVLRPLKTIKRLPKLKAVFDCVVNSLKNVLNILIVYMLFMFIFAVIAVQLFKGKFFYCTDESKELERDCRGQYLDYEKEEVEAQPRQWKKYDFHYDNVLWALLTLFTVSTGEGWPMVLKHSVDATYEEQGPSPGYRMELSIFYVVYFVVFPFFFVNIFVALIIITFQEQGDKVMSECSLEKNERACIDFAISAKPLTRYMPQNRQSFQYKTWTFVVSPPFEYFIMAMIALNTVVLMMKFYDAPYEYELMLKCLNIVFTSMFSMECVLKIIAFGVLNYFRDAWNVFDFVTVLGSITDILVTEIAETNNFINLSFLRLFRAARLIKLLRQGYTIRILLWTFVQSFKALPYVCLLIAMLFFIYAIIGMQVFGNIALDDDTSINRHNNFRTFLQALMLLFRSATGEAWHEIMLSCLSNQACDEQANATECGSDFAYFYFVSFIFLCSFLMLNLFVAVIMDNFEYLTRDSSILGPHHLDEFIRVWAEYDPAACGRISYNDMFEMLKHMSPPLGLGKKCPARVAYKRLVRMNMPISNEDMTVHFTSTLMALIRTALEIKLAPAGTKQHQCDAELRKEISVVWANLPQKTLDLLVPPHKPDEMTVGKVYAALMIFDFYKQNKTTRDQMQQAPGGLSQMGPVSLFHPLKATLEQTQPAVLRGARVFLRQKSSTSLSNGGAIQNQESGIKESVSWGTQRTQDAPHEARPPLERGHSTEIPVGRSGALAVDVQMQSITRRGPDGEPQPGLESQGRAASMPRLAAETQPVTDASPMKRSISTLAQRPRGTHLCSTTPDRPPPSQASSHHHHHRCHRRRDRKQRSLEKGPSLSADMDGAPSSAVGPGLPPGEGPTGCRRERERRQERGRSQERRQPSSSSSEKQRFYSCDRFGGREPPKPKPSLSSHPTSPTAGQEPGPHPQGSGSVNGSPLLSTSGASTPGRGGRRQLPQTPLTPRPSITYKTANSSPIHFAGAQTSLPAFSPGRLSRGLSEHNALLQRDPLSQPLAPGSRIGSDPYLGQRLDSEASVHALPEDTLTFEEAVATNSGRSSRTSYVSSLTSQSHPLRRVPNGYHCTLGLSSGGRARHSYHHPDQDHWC
T1 sequence (P54289 25-1103 partner): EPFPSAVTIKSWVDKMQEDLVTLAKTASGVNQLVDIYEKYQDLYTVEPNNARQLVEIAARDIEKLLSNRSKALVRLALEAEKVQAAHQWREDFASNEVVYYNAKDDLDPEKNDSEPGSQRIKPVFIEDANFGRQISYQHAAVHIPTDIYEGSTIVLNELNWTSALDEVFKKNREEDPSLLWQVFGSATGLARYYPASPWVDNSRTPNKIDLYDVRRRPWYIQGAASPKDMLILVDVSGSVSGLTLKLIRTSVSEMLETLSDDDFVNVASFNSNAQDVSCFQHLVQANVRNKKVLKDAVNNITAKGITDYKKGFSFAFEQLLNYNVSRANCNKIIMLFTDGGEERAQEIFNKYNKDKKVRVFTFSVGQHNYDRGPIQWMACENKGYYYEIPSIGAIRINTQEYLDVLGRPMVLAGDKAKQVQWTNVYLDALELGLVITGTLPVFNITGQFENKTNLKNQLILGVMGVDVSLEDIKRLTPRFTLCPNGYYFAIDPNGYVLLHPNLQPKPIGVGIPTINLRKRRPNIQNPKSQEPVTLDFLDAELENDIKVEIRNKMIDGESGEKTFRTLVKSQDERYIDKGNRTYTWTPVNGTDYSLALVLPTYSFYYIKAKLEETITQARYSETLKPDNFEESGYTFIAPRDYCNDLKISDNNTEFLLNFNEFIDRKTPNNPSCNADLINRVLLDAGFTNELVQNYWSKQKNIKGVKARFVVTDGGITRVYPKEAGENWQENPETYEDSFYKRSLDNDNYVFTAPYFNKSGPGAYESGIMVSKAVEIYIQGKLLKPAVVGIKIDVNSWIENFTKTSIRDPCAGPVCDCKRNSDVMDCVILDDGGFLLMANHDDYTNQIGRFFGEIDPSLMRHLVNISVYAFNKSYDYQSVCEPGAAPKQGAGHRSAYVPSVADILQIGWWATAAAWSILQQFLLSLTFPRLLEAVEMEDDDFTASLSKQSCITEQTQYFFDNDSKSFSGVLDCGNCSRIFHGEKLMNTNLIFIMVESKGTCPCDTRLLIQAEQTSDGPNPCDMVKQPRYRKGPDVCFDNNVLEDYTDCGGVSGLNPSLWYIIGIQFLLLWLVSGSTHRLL
T1 sequence (P54284 whole entry partner): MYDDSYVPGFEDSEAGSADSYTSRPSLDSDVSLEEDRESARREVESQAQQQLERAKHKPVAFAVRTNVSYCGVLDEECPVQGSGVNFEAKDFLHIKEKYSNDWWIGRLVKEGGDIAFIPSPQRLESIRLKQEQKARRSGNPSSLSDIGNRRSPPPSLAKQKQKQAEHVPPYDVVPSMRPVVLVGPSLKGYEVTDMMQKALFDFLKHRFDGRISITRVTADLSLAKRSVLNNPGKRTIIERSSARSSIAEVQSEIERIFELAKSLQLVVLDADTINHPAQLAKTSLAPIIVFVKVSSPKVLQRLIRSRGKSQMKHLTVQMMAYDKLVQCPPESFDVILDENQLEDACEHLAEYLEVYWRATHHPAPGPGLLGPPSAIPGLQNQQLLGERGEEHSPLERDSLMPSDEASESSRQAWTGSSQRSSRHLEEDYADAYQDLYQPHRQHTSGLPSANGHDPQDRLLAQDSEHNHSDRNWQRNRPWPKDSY

inhibition at 10 µM (Human Cav2.2 channels) | inhibition at 30 µM (Human Cav2.2 channels) | IC50 (Human Cav2.2 channels) | Compound | fold selective for T-type over L-type channels (T-type calcium channels)
– | – | – | COCC(=O)O[C@]1(CCN(C)CCCc2nc3ccccc3[nH]2)CCc2cc(F)ccc2[C@@H]1C(C)C [Mibefradil] | 10-30 fold
82.2% | 91.3% | 893 nM | CC(C)(C)c1cc(C(=O)NC2(C(=O)NCc3ccccc3)Cc3ccccc3C2)cc(C(C)(C)C)n1 [Compound 52, N-(2-(benzylcarbamoyl)-2,3-dihydro-1H-inden-2-yl)-2,6-di-tert-butylisonicotinamide] | –
53.5% | 73.4% | – | COc1ccc(CNC(=O)C2(NC(=O)c3cc(C(C)(C)C#N)cc(C(C)(C)C#N)c3)CCOCC2)cc1 [Compound 115, 4-(3,5-bis(2-cyanopropan-2-yl)benzamido)-N-(4-methoxybenzyl)tetrahydro-2H-pyran-4-carboxamide] | –
92.5% | 98% | 943 nM | Cc1cc(CNC(=O)C2(NC(=O)c3cc(C(C)(C)C)c(O)c(C(C)(C)C)c3)CC2)no1 [Compound 116, 3,5-di-tert-butyl-4-hydroxy-N-(1-((5-methylisoxazol-3-yl)methylcarbamoyl)cyclopropyl)benzamide] | –
